{
  "source": "PubChem BioAssay AID1259407",
  "about": "(Chemical Carcinogenesis Research Information System (CCRIS), 2018)",
  "system": "CCRIS mutagenicity, Ames/micronucleus/aberration tests",
  "test": "CCRIS mutagenicity studies",
  "note": "Activity calls are given as the source filed them. The rule behind the calls is not given here.",
  "data": [
    {"compound": "Nc1c(Oc2ccccc2)cc(O)c2c1C(=O)c1ccccc1C2=O", "values": [
      {"measurement": "mutagenic call", "setting": "Test System: AMES SALMONELLA TYPHIMURIUM, Strain/Indicator: TA98, Metabolic Activation: HAMSTER, LIVER, S-9, AROCLOR 1254 (10%), Method: STANDARD PLATE", "result": "active; positive"},
      {"measurement": "mutagenic call", "setting": "Test System: AMES SALMONELLA TYPHIMURIUM, Strain/Indicator: TA98, Metabolic Activation: NONE, Method: STANDARD PLATE", "result": "active; positive"},
      {"measurement": "mutagenic call", "setting": "Test System: AMES SALMONELLA TYPHIMURIUM, Strain/Indicator: TA98, Metabolic Activation: RAT, LIVER, S-9, AROCLOR 1254 (10%), Method: STANDARD PLATE", "result": "active; positive"},
      {"measurement": "mutagenic call", "setting": "Test System: AMES SALMONELLA TYPHIMURIUM, Strain/Indicator: TA100, Metabolic Activation: HAMSTER, LIVER, S-9, AROCLOR 1254 (10%), Method: STANDARD PLATE", "result": "inactive; negative"},
      {"measurement": "mutagenic call", "setting": "Test System: AMES SALMONELLA TYPHIMURIUM, Strain/Indicator: TA100, Metabolic Activation: NONE, Method: STANDARD PLATE", "result": "inactive; negative"},
      {"measurement": "mutagenic call", "setting": "Test System: AMES SALMONELLA TYPHIMURIUM, Strain/Indicator: TA100, Metabolic Activation: RAT, LIVER, S-9, AROCLOR 1254 (10%), Method: STANDARD PLATE", "result": "inactive; negative"},
      {"measurement": "mutagenic call", "setting": "Test System: MOUSE LYMPHOMA, Strain/Indicator: L5178Y (TK+/TK-), Metabolic Activation: RAT, LIVER, S-9, AROCLOR 1254, Method: SUSPENSION/PLATE", "result": "inactive; negative. reevaluation of results: negative"}
    ]},
    {"compound": "Nc1ccccn1", "values": [
      {"measurement": "mutagenic call", "setting": "Test System: AMES SALMONELLA TYPHIMURIUM, Strain/Indicator: TA98, Metabolic Activation: HAMSTER, LIVER, S-9, AROCLOR 1254 (10%), Method: PREINCUBATION", "result": "inactive; negative"},
      {"measurement": "mutagenic call", "setting": "Test System: AMES SALMONELLA TYPHIMURIUM, Strain/Indicator: TA98, Metabolic Activation: NONE, Method: PREINCUBATION", "result": "inactive; negative"},
      {"measurement": "mutagenic call", "setting": "Test System: AMES SALMONELLA TYPHIMURIUM, Strain/Indicator: TA98, Metabolic Activation: RAT, LIVER, S-9, AROCLOR 1254 (10%), Method: PREINCUBATION", "result": "inactive; negative"},
      {"measurement": "mutagenic call", "setting": "Test System: AMES SALMONELLA TYPHIMURIUM, Strain/Indicator: TA100, Metabolic Activation: HAMSTER, LIVER, S-9, AROCLOR 1254 (10%), Method: PREINCUBATION", "result": "inactive; negative"},
      {"measurement": "mutagenic call", "setting": "Test System: AMES SALMONELLA TYPHIMURIUM, Strain/Indicator: TA100, Metabolic Activation: NONE, Method: PREINCUBATION", "result": "inactive; negative"},
      {"measurement": "mutagenic call", "setting": "Test System: AMES SALMONELLA TYPHIMURIUM, Strain/Indicator: TA100, Metabolic Activation: RAT, LIVER, S-9, AROCLOR 1254 (10%), Method: PREINCUBATION", "result": "inactive; negative"},
      {"measurement": "mutagenic call", "setting": "Test System: AMES SALMONELLA TYPHIMURIUM, Strain/Indicator: TA1535, Metabolic Activation: HAMSTER, LIVER, S-9, AROCLOR 1254 (10%), Method: PREINCUBATION", "result": "inactive; negative"},
      {"measurement": "mutagenic call", "setting": "Test System: AMES SALMONELLA TYPHIMURIUM, Strain/Indicator: TA1535, Metabolic Activation: NONE, Method: PREINCUBATION", "result": "inactive; negative"},
      {"measurement": "mutagenic call", "setting": "Test System: AMES SALMONELLA TYPHIMURIUM, Strain/Indicator: TA1535, Metabolic Activation: RAT, LIVER, S-9, AROCLOR 1254 (10%), Method: PREINCUBATION", "result": "inactive; negative"},
      {"measurement": "mutagenic call", "setting": "Test System: AMES SALMONELLA TYPHIMURIUM, Strain/Indicator: TA1537, Metabolic Activation: HAMSTER, LIVER, S-9, AROCLOR 1254 (10%), Method: PREINCUBATION", "result": "inactive; negative"},
      {"measurement": "mutagenic call", "setting": "Test System: AMES SALMONELLA TYPHIMURIUM, Strain/Indicator: TA1537, Metabolic Activation: NONE, Method: PREINCUBATION", "result": "inactive; negative"},
      {"measurement": "mutagenic call", "setting": "Test System: AMES SALMONELLA TYPHIMURIUM, Strain/Indicator: TA1537, Metabolic Activation: RAT, LIVER, S-9, AROCLOR 1254 (10%), Method: PREINCUBATION", "result": "inactive; negative"}
    ]},
    {"compound": "CN(Cc1ccc(Br)cc1)N=O", "values": [
      {"measurement": "mutagenic call", "setting": "Test System: AMES SALMONELLA TYPHIMURIUM, Strain/Indicator: TA1535, Metabolic Activation: HAMSTER, LIVER, S-9, AROCLOR 1254, Method: STANDARD PLATE", "result": "active; positive"},
      {"measurement": "mutagenic call", "setting": "Test System: AMES SALMONELLA TYPHIMURIUM, Strain/Indicator: TA1535, Metabolic Activation: NONE, Method: STANDARD PLATE", "result": "inactive; negative"}
    ]}
  ]
}
